Measurements as given in ChEMBL document CHEMBL6096667, “Design, synthesis and biological evaluation of biaryl amide derivatives as modulators of multi-drug resistance” (Eur J Med Chem, 2025).
pEC50, pIC50, pKd: −log10 of the molar value.

Tests used:
A2780/Taxol [1] = experiment: Inhibition of cell proliferation of human Paclitaxel-resistant A2780/T cells incubated for 48 hrs in presence of PTX by MTT assay; format: functional, cell-based
A2780/Taxol [2] = experiment: Inhibition of cell proliferation of human Paclitaxel-resistant A2780/T cells at 1 uM incubated for 48 hrs in presence of PTX by MTT assay relative to control; format: functional
A2780/Taxol [3] = experiment: Inhibition of cell proliferation of human Paclitaxel-resistant A2780/T cells at 10 uM incubated for 48 hrs in presence of PTX by MTT assay relative to control; format: functional
A2780/Taxol [4] = experiment: Reversal of paclitaxel resistance in human Paclitaxel-resistant A2780/T cells assessed as reversal fold by measuring ratio of paclitaxel IC50 to paclitaxel IC50 in presence of test compound at 1 uM incubated for 48 hrs by MTT assay; format: functional
A2780/Taxol [5] = experiment: Inhibition of cell proliferation of human Paclitaxel-resistant A2780/T cells at 0.01 uM incubated for 48 hrs in presence of PTX by MTT assay relative to control; format: functional
A2780/Taxol [6] = experiment: Inhibition of cell proliferation of human Paclitaxel-resistant A2780/T cells at 0.1 uM incubated for 48 hrs in presence of PTX by MTT assay relative to control; format: functional
[7] = Reversal of paclitaxel resistance in human A2780/CDDP cells assessed as reversal fold by measuring ratio of paclitaxel IC50 to paclitaxel IC50 in presence of test compound by MTT assay; format: functional
[8] = Reversal of paclitaxel resistance in human CDDP-resistant A549 cells assessed as reversal fold by measuring ratio of paclitaxel IC50 to paclitaxel IC50 in presence of test compound by MTT assay; format: functional, CDDP-resistant A549 cell
[9] = target: ATP-dependent translocase ABCB1 (Homo sapiens, UniProt P08183); experiment: Binding affinity to CM5 sensor chip-immobilized human P-gp assessed as dissociation constant by SPR analysis
Sequence of ATP-dependent translocase ABCB1 (P08183 whole entry): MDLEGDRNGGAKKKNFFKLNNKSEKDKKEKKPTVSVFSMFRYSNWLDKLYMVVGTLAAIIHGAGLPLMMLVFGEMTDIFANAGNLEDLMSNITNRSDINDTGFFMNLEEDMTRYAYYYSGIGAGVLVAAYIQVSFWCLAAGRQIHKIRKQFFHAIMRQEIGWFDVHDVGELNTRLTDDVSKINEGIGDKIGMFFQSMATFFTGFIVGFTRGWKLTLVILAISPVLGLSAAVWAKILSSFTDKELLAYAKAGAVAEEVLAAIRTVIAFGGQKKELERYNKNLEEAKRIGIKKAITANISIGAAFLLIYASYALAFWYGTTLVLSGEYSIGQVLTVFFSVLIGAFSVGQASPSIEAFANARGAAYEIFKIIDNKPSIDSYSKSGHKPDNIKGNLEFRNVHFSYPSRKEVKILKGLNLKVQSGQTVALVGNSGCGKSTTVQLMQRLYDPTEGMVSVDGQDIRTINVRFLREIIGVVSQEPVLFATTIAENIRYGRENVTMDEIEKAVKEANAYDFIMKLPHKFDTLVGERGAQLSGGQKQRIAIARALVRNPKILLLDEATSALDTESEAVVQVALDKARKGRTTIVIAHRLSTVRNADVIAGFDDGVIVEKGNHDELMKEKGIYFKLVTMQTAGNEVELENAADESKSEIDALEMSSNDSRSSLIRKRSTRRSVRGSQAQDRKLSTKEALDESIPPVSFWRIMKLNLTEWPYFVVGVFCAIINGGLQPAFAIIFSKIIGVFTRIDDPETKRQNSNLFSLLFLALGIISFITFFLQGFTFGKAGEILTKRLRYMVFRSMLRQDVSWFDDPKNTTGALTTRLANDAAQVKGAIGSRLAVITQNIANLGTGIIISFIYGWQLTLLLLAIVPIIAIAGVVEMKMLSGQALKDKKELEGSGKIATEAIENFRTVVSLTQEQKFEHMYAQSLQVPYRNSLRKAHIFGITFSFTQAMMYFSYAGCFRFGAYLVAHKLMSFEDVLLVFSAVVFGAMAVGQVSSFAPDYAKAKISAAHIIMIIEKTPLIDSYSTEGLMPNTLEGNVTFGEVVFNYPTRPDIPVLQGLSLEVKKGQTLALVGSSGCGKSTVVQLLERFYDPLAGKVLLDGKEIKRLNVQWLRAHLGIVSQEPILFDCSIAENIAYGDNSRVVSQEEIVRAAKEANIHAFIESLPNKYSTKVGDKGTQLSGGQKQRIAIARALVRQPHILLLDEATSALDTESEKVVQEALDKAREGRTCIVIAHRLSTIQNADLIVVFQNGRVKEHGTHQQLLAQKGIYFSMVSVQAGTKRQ

A2780/Taxol [10] = experiment: Reversal of paclitaxel resistance in human Paclitaxel-resistant A2780/T cells by MTT assay; format: functional, cell-based

Row | Compound | pIC50 (A2780/Taxol [1]) | inhibition at 1 µM (A2780/Taxol [2]) [%] | inhibition at 10 µM (A2780/Taxol [3]) [%] | inhibition at 0.01 µM (A2780/Taxol [5]) [%] | inhibition at 0.1 µM (A2780/Taxol [6]) [%] | other results
1 | COc1cc(C(=O)NCc2ccc(-c3ccccc3)cn2)cc(OC)c1OC | 4.64 | 10 | 51 |  |  | 
2 | COc1ccc(-c2ccc(CNC(=O)c3cn(C)c4ccccc34)nc2)c(OC)c1 | < 4.30 | 36 | 80 |  |  | Ratio IC50 (A2780/Taxol [4]): 38
3 | Cn1c(C(=O)NCc2ccc(-c3ccccc3)cn2)cc2ccccc21 | < 4.30 | 11 | 37 |  |  | 
4 | O=C(/C=C/c1cccnc1)NCc1ccc(-c2ccccc2)cn1 | 4.66 | 33 | 38 |  |  | 
5 | CCCCc1ccc(-c2ccc(CNC(=O)c3cn(C)c4ccccc34)nc2)cc1 | < 4.30 | 37 | 52 |  |  | 
6 | O=C(Cc1cccnc1)Nc1ccc(-c2ccccc2)cn1 | < 4.30 | 39 | 34 |  |  | 
7 | Cn1cc(C(=O)NCc2ccc(-c3ccc(F)cc3)cn2)c2ccccc21 | < 4.30 | 25 | 63 |  |  | 
8 | O=C(Nc1ncc(-c2ccccc2)cc1F)c1cccnc1 | 6.49 |  |  | 11 | 50 | 
9 | O=C(Nc1ccc(-c2ccccc2)nc1)c1cccnc1 | 4.87 |  |  | 9 | 33 | 
10 | O=C(Nc1ccc(-c2ccccc2)cn1)c1cccnc1 | 6.06 |  |  | 28 | 55 | 
11 | Cn1cc(C(=O)NCc2ccc(-c3cnc4ccccc4c3)cn2)c2ccccc21 | < 4.30 | 46 | 76 |  |  | Ratio IC50 (A2780/Taxol [4]): 9
12 | O=C(Nc1ncc(-c2ccccc2)cn1)c1cccnc1 | 6.96 |  |  | 34 | 49 | 
13 | O=C(Nc1ccc(-c2ccccc2)cc1[N+](=O)[O-])c1cccnc1 | 7.57 |  |  | 48 | 74 | 
14 | O=C(Nc1ccc(-c2ccccc2)c(F)c1F)c1cccnc1 | 6.11 |  |  | 27 | 46 | 
15 | O=S(=O)(Nc1ccc(-c2ccccc2)cn1)c1cccnc1 | 4.73 | 7 | 37 |  |  | 
16 | O=C(Nc1ccc(-c2ccccc2)cc1OC(F)(F)F)c1cccnc1 | 5.45 |  |  | 31 | 42 | 
17 | Cn1cccc1C(=O)NCc1ccc(-c2ccccc2)cn1 | < 4.30 | 10 | 30 |  |  | 
18 | COc1ccc(CCN(C)CCCC(C#N)(c2ccc(OC)c(OC)c2)C(C)C)cc1OC (centres undefined) |  | 57 | 76 | 22 | 47 | 
19 | O=C(NCc1ccc(-c2ccccc2)cn1)c1ccc(Br)nc1 | < 4.30 | 12 | 37 |  |  | 
20 | O=C(Nc1ccc(-c2ccccc2)c2cccnc12)c1cccnc1 | 4.48 |  |  | 6 | 39 | 
21 | O=C(NCc1ccc(-c2ccccc2)cn1)c1cccnc1 | 4.52 | 32 | 65 |  |  | 
22 | Cn1cc(C(=O)NCc2ccc(-c3cccc(F)c3)cn2)c2ccccc21 | < 4.30 | 8 | 33 |  |  | 
23 | O=C(Nc1cccnc1)Nc1ccc(-c2ccccc2)cn1 | < 4.30 | 10 | 30 |  |  | 

Row | Compound | pIC50 (A2780/Taxol [1]) | inhibition at 1 µM (A2780/Taxol [2]) [%] | inhibition at 10 µM (A2780/Taxol [3]) [%] | inhibition at 0.01 µM (A2780/Taxol [5]) [%] | inhibition at 0.1 µM (A2780/Taxol [6]) [%] | other results
24 | O=C(Nc1nc(-c2ccccc2)co1)c1cccnc1 | 5.00 |  |  | 11 | 30 | 
25 | Cn1cc(C(=O)NCc2ccc(-c3ccccc3)cn2)c2ccccc21 | < 4.30 | 30 | 81 |  |  | Ratio IC50 (A2780/Taxol [4]): 18; Ratio IC50 [7]: 5; Ratio IC50 [8]: 3; pKd [9]: 5.78
26 | Cn1cc(C(=O)NCc2ccc(-c3ccc4c(c3)c3ccccc3n4-c3ccccc3)cn2)c2ccccc21 | < 4.30 | 14 | 28 |  |  | 
27 | Cc1ccc(C(=O)NCc2ccc(-c3ccccc3)cn2)cn1 | < 4.30 | 12 | 35 |  |  | 
28 | O=C(Nc1ccc(-c2ccccc2)c([N+](=O)[O-])c1)c1cccnc1 | 4.95 |  |  | 25 | 37 | 
29 | Cn1cc(C(=O)NCc2ccc(-c3cccs3)cn2)c2ccccc21 | < 4.30 | 6 | 80 |  |  | Ratio IC50 (A2780/Taxol [4]): 47
30 | O=C(NCc1ccc(-c2ccccc2)cn1)c1c(F)c(F)c(F)c(F)c1F | < 4.30 | 13 | 39 |  |  | 
31 | COc1ccc(-c2ccc(CNC(=O)c3cn(C)c4ccccc34)nc2)cc1F | < 4.30 | 40 | 71 |  |  | Ratio IC50 (A2780/Taxol [4]): 78
32 | O=C(Nc1ccc(-c2ccccc2)c2nonc12)c1cccnc1 | 5.51 |  |  | 14 | 33 | 
33 | O=C(Nc1ncc(-c2ccccc2)cc1O)c1cccnc1 | 5.68 |  |  | 11 | 38 | 
34 | Cn1cc(C(=O)NCc2ccc(-c3cccc4ccccc34)cn2)c2ccccc21 | < 4.30 | 46 | 83 |  |  | Ratio IC50 (A2780/Taxol [4]): 138; Ratio IC50 [7]: 6; Ratio IC50 [8]: 4; pEC50 (A2780/Taxol [10]): 6.90
35 | O=C(Nc1ccc(-c2ccccc2)c2ccccc12)c1cccnc1 | 4.72 |  |  | 31 | 35 | 
36 | O=C(NCc1ccc(-c2ccccc2)cn1)c1ccc(F)c(F)c1 | 4.70 | 22 | 46 |  |  | 
37 | N#Cc1cc(-c2ccccc2)cnc1NC(=O)c1cccnc1 | 7.10 |  |  | 35 | 59 | 
38 | O=C(NCc1ccc(-c2ccccc2)cn1)c1cncnc1 | 4.49 | 24 | 61 |  |  | 
39 | O=C(Nc1ccc(-c2ccccc2)cc1)c1cccnc1 | 4.90 |  |  | 29 | 37 | 
40 | O=C(NCc1ccc(-c2ccccc2)cn1)c1ccc2cccnc2c1 | 4.74 | 31 | 67 |  |  | 
41 | Cn1cc(C(=O)NCc2ccc(-c3ccc(OCc4ccccc4)cc3)cn2)c2ccccc21 | < 4.30 | 41 | 78 |  |  | Ratio IC50 (A2780/Taxol [4]): 54
42 | Cn1cc(C(=O)NCc2ccc(-c3ccco3)cn2)c2ccccc21 | < 4.30 | 20 | 32 |  |  | 
43 | O=C(Nc1c(F)c(F)c(-c2ccccc2)c(F)c1F)c1cccnc1 | 6.10 |  |  | 25 | 46 | 
44 | O=C(NCc1ccc(-c2ccccc2)cn1)c1ccc(C(F)(F)F)nc1 | < 4.30 | 9 | 31 |  |  | 
45 | O=C(Cc1cccnc1)NCc1ccc(-c2ccccc2)cn1 | < 4.30 | 33 | 42 |  |  | 
